Reference: PMC8382845, “High-content image-based analysis and proteomic profiling identifies Tau phosphorylation inhibitors in a human iPSC-derived glutamatergic neuronal model of tauopathy” (Scientific Reports, 2021)

Target: T1, GSK3α (Homo sapiens, UniProt P49840)
T1 construct: gene GSK3A
T1 sequence (P49840 2-483): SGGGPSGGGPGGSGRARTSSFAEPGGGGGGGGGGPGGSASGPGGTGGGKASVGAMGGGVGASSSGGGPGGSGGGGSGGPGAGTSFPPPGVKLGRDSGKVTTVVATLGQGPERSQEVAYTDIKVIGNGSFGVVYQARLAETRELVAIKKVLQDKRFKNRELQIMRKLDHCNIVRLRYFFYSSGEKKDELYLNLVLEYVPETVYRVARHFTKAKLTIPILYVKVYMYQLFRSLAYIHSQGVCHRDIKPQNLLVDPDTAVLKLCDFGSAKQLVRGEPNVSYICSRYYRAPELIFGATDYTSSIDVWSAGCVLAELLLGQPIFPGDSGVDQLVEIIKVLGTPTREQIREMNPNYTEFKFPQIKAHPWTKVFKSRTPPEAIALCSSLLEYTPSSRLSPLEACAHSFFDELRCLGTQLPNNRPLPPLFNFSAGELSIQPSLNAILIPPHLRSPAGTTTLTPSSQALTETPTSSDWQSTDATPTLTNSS

Cc1c[nH]c(-c2cnc(NCCNc3ccc(C#N)cn3)nc2-c2ccc(Cl)cc2Cl)n1 [CHIR-99021]
MIB-MS chemoproteomic competition (loss of kinase binding to inhibitor beads) af: This effect of CHIR-99021 was similar between the two GSK isoforms, GSK3α and GSK3β (Fig. 5C) in both NPC and neurons
